One series relates to NF-κB. In words: High throughput assay for NF-κB reporter activity (luciferase, stably transfected SH-SY5Y cells). As to conditions: for maximal fold induction: 24 h, read-out: Emax. It is filed as cell-based, human. On the procedure:
SH-SY5Y human neuroblastoma cell line was obtained from the American Tissue Culture collection (ATCC). A commercially available expression vector containing the NF-kB promoter enhancer region driving the firefly luciferase gene expression and a second plasmid containing the gene conferring resistance to blasticidin were used in a dual transfection approach to obtain a stable cell line. SH-SY5Y cells stably transfected with pNF-κB-luc/pEF6 were plated at 8,000 per well in a volume of 40 μl DMEM in either Corning white opaque, 384-well plates (Cat. No. 3570, Corning, Inc., Corning, N.Y.) or Corning black clear bottom, 384-well plates (Cat. No. 3712, Corning, Inc., Corning, N.Y.) and treated with test compounds for 24 hr at 37° C. Luciferase activity was measured as a reporter of NF-kB activation using the Bright-Glo Luciferase assay kit (Cat. No. E2620, Promega, Madison, Wis.) according to the manufacturer's instructions. Cell viability was measured using the CellTiter-Glo Luminescent Cell Viability assay kit (Cat. No. G7572, Promega, Madison, Wis.) according to the manufacturer's instructions. Briefly, cells were equilibrated at room temperature for 30 min prior to the addition of Bright-Glo to the white opaque plates or CellTiter-Glo to the black clear bottom plates. A volume of assay buffer equal to the volume of cell media was added to each well and incubated for five min to allow complete cell lysis. All procedures were performed in the dark. Luminescence was measured by the Synergy4 Multi-detection microplate reader (BioTek, Winooski, Vt.) within 15 min of lysis.

The nature of series [1]: Bioavailability / PK study (IV and PO). It counts as in vivo, mouse. The settings on record: for oral bioavailability: I.V./P.O., 1 and 5 mg/kg; for half-life: male, CD1, mouse, plasma, read-out: plasma half-life (t1/2). The procedure: The experiments will involve the administration of compounds to 5-6 week old CD1 male mice. Mice are dosed by either a 1 mg/kg IV bolus or 5 mg/kg oral gavage. Blood samples are collected by cardiac puncture at 0, 0.25, 0.5, 1, 2, 4, 6, 8, 12, and 24 hrs. There will be three mice per time point. Plasma concentration over time will be determined by LC/MS from which the standard PK parameters of clearance, volume of distribution, t1/2 and % F can be derived using WinNoLin software (Pharsight Inc.). This will require a total of 60 mice per compound. Plasma will be analyzed by reverse phase chromatography with MS/MS detection operating in the positive ion mode using multiple reaction monitoring using an internal standard and Applied Biosystems Analyst 1.4 software. Peak time (when maximum plasma drug concentration occurs), peak drug level [approximate maximum concentrations of drug in plasma (Cmax)] and tin for drug elimination will be estimated for each tested compound. Bioavailability (F) will be calculated from the ratio of AUCPO/AUCIV and expressed as a percentage. To determine levels in brain, six additional mice will be dosed with 1 mg/kg I.V. and sacrificed at 0.25 and 1 hr. Brain and spinal cord samples will be collected at these two time points, quick frozen in an ice box and kept at −75±15° C. All samples will be weighed and homogenized with phosphate buffered saline (PBS) by brain weight (g) to PBS volume (mL) ratio 1:3 before analysis. The actual concentration is the detected value multiplied by the dilution factor.

In series [2] the test system is SOD2. In words: SOD2 mRNA expression by quantitative RT-PCR in SH-SY5Y neuroblastoma cells. It counts as cell-based. As to conditions: human SH-SY5Y, 1 μM, 6 h (FIG. 1A).
Series [3] has as its system SOD2. In words: SOD2 mRNA expression by quantitative RT-PCR in NSC-34 neuroblastoma cells. It counts as cell-based. As to conditions: mouse NSC-34, 1 μM, 24 h (FIG. 1B).
For series [4], the system named is SOD1 G93A transgenic mouse. In words: Efficacy in the SOD1 G93A transgenic mouse model of ALS. It counts as in vivo. The settings on record: for progression to a score of 4: 25 mg/kg I.P. daily from day 96, 4-point severity score; for survival: SOD1 G93A males, 25 mg/kg I.P. daily from day 96. The procedure: Briefly, Congenic SOD1-G93A mice were dosed with up to 50 mg/kg of both compounds (IP) to evaluate any toxicity issues prior to initiating the efficacy study. Also, mice administered 20 mg of each compound had high plasma and brain levels at 30 minutes. Next, individually genotyped SOD1-G93A mice (Prize4life-Jackson Labs) were treated with each compound (25 mg/kg, IP) at disease onset (day 96). The treatment extended survival, reduced weight loss and improved the neurologic symptoms. […] Data document a 66% and an 81% lifespan extension for the compounds, respectively, at 50% survival in male mice. […] The average weight within the groups before the treatment was similar.
While compounds which increase SOD2 expression and activity have potential utility in a number of neurodegenerative diseases involving ROS overproduction, it was decided to test these two compounds in a mouse model of ALS for a variety of reasons, including the evidence for oxidative stress in ALS (described above), the ability of these compounds to induce SOD2 in a motor neuron-like mouse cell line (NSC-34; FIG. 1B), and the availability of a mouse model with dysfunction in SOD1 (human SOD1 G93A transgenic mouse; Jackson Laboratory). The pilot experiment involved treating six wildtype and six SOD1 G93A transgenic males on the C57BL/6 background with 25 mg/kg compound no. 1 and compound no. 2 I.P. daily, beginning around disease onset (day 96; FIG. 2A and FIG. 2B). Mouse survival and behavioral phenotype were observed based on guidelines from “Working with ALS mice: JAX handbook,” using a 4-point severity score (FIG. 2C).
Referring to FIG. 2A and FIG. 2B, SOD1 G93A mice received daily IP injections of saline (control) or compounds (25 mg/kg) starting on day 96.

Series [5] has as its system SOD2. In words: SOD2 protein expression and SOD activity in primary rat cortical cultures. It counts as cell-based. As to conditions: for SOD2 protein expression: primary rat cortical cultures (FIG. 1C); for SOD activity: primary rat cortical cultures (FIG. 1D). The text has this:
N=3-6/group, mean+/−SEM, *p<0.05, **p<0.01, 2-way ANOVA, post-hoc t-test.

The nature of series [6]: Plasma and brain levels in SOD1 G93A mice. It counts as in vivo, mouse. The settings on record: 50 mg/kg I.P., within 30 minutes. The procedure:
Before the studies above were initiated, congenic SOD1 G93A mice were dosed with 50 mg/kg of compound no. 1 and compound no. 2 via I.P. injection to rule out any toxicity issues prior to initiating the efficacy study (FIG. 2A-C).

The test system of series [7] is SOD2. In words: SOD2 mRNA expression in vitro (FIG. 5). As to conditions: FIG. 1A-D. It counts as cell-based. The text has this: While a number of new compounds derived from Ataluren and compound no. […] 1 and no. 2. […] Whether these and other compounds are capable of inducing SOD2 mRNA and protein activity in vitro and in vivo, in addition to their ability to protect neurons from hydrogen peroxide or glutamate-induced cell death (as in Carri et al. (2015) Frontiers in cellular neuroscience 9:41) and dysfunction/cell death in the SOD1 G93A transgenic mouse model will also be evaluated.

Series [8] concerns glutamate-induced toxicity in primary cultures. As to the kind of experiment: Neuroprotection in vitro. It counts as cell-based.
The next series has as its system inhibitory κB. In words: Inhibitory κB expression levels. It is filed as cell-based.
Where [9] appears, read: Homo sapiens, SH-SY5Y, Table 2, no unit printed (text: fold).
[10] abbreviates: Homo sapiens, SH-SY5Y, Table 2, unit not given (μM for nos. 3 and 20), read-out: EC50.
The mark [11] stands for this setting: Table 2, unit not given (μM for nos. 3 and 20).

Read-outs that look alike come from different tables or passages of the source. Where only a bound is given, the exact number is not on record here.

In general, EC50 refers to the midpoint of the concentration-response curve. Consider `O=C(O)c1cccc(-c2noc(-c3ccccc3F)n2)c1` [Ataluren, reference compound], for which, in the series on NF-κB, the induction was 9-10 fold. The EC50 with NF-κB (Homo sapiens, SH-SY5Y, read-out: EC50) was determined as 1.5 µM.
Consider `O=C(/C=C\Nc1ccccc1Br)c1ccc2c(c1)OCO2` [Compound 1, (Z)-1-(Benzo[d][1,3]dioxol-5-yl)-3-((2-bromophenyl)amino)Prop-2-en-1-one], for which, in series [1], the oral bioavailability entry is recorded as “lack of oral bioavailability” and the half-life is under 5 min. For the same molecule, in the series on NF-κB (setting [9]), the maximal fold induction worked out at 26. Moreover, in the series with NF-κB (setting [10]), the EC50 stood at 0.5 µM. Further, in the series with SOD2 [2], the “SOD2 mRNA expression” value is “induce SOD2”. Also, in the series on SOD2 [3], the “SOD2 mRNA expression” value is “induce SOD2”. Besides, in [4], the “progression to a score of 4” value is recorded as “delayed” and the survival result is listed as “significantly prolonged”. In addition, in the series on SOD2 [5], the SOD2 protein expression result was “induce SOD2” and the SOD activity result was “increase”. Besides, the “plasma and brain levels” value in [6] was “substantial plasma and brain levels”. For the same molecule, the “SOD2 mRNA expression increase” value in the series with SOD2 [7] amounted to 2 fold. Besides, the neuroprotection in vitro entry in series [8] is “neuroprotective in vitro”. Moreover, the “inhibitory κB expression levels” value in the series with inhibitory κB is listed as “do not effect inhibitory κB expression levels”.
As to `Cc1cccnc1Nc1nc(-c2ccccn2)cs1` [Compound 2, N-(3-Methylpyridin-2-yl)-4-(pyridin-2-yl)thiazol-2-amine], in series [1], the oral bioavailability entry is “lack of oral bioavailability” and the half-life is under 5 min. Also, the maximal fold induction with NF-κB (setting [9]) came to 40. Also, the EC50 in the series with NF-κB (setting [10]) was determined as 0.21 µM. For the same molecule, in the series with SOD2 [2], the “SOD2 mRNA expression” value is on record as “induce SOD2”. For the same molecule, the “SOD2 mRNA expression” value in the series with SOD2 [3] was “induce SOD2”. In series [4], the “progression to a score of 4” value was “delayed” and the survival entry is listed as “significantly prolonged”. Further, in the series with SOD2 [5], the SOD2 protein expression result is “induce SOD2” and the SOD activity entry is recorded as “increase”. In series [6], the “plasma and brain levels” value was “substantial plasma and brain levels”. Besides, the “SOD2 mRNA expression increase” value with SOD2 [7] is recorded as 2 fold. In [8], the neuroprotection in vitro entry is “neuroprotective in vitro”. Besides, the “inhibitory κB expression levels” value in the series with inhibitory κB is “do not effect inhibitory κB expression levels”.
As to `Fc1ccccc1Nc1nc(-c2cccc(C(F)(F)F)c2)cs1` [Compound 16], the maximal fold induction in the series on NF-κB (setting [9]) stood at 16. The EC50 in the series with NF-κB (setting [10]) was determined as 9.35 µM.
The like results for `Fc1ccccc1Nc1nc(-c2cccc(Cl)c2)cs1` [Compound 17] were, in that order, 14.5 and over 10 µM.
Take `Fc1ccc(-c2csc(Nc3ccccc3F)n2)cc1F` [Compound 19]: the maximal fold induction with NF-κB (setting [9]) is 18.5. For the same molecule, in the series with NF-κB (setting [10]), the EC50 is over 10 µM.
In the case of `CC(C)(O)c1cccc(-c2csc(Nc3ccccc3F)n2)c1` [Compound 21], the maximal fold induction in the series with NF-κB (setting [9]) was found to be 18.9. For the same molecule, in the series with NF-κB (setting [10]), the EC50 is over 10 µM.
For the molecule `Fc1ccccc1Nc1nc(-c2ccc(OCC(F)(F)F)cc2)cs1` [Compound 24], the EC50 in the series with NF-κB (setting [10]) is over 10 µM.
With `N#Cc1cccc(-c2csc(Nc3ccccc3F)n2)c1` [Compound 25], the EC50 in the series on NF-κB (setting [10]) was over 10 µM.
On the same count and under the same terms, in the case of `Fc1ccccc1Nc1nc(-c2ccc(C(F)(F)F)cc2)cs1` [Compound 26] it was over 10 µM; in that of `N#Cc1ccc(-c2csc(Nc3ccccc3F)n2)cc1` [Compound 27], over 10 µM.
For the molecule `O=C(NC1CC1)c1cccc(-c2csc(Nc3ccccc3F)n2)c1` [Compound 28], in the series with NF-κB (setting [11]), the EC50 result is reported as “Inactive”.
Turning to `Fc1ccccc1Nc1nc(-c2ccc(Cl)c(Cl)c2)cs1` [Compound 29], in the series on NF-κB (setting [10]), the EC50 is over 10 µM.
For `NC(=O)c1cccc(-c2csc(Nc3ccccc3F)n2)c1` [Compound 30], the EC50 entry in the series on NF-κB (setting [11]) is given as “Inactive”.
Still for that read-out and setting: the same measure for `Cc1noc(-c2cccc(-c3csc(Nc4ccccc4F)n3)c2)n1` [Compound 31]: “Inactive”; for `Fc1ccc(-c2csc(Nc3ccccc3F)n2)cc1` [Compound 43]: “Inactive”.
On to “N-(4-(2-((2-Fluorophenyl)amino)thiazol-4-yl)benzyl)acetamide [Compound 20]”, for which the Emax with NF-κB was over 20 fold; with NF-κB (Table 2, no unit printed (text: fold)), 27.58. In addition, the EC50 is 3.75 µM in the series on NF-κB (Table 2, unit not given (μM for nos. 3 and 20), read-out: EC50); 4 µM in the series with NF-κB (read-out: EC50).
